Assay results from patent US20070128217A1 (priority 2003, published 2007).

How the values were obtained:
[1] = tested on: antibodies in sera from SARS patients (sera 1a, 1b, 2, 6, 37, 62, London, SARS-yellow, SARS-green); format: binding, human; parameters: Binding of serum 6 to linear peptides of protein X1 of SARS-CoV Urbani / Binding of serum 37 to linear peptides of protein X1 of SARS-CoV Urbani / Binding of serum 6 to looped/cyclic peptide (PEPSCAN-ELISA) / Binding of serum 37 to looped/cyclic peptide (PEPSCAN-ELISA) / Binding of serum 37 to looped/cyclic peptides of protein X1 of SARS-CoV Urbani / Binding of serum 6 to linear peptides of protein X2 / Binding of serum 37 to linear peptides of protein X2 / Binding of serum 37 to looped/cyclic peptides of protein X2 of SARS-CoV Urbani / Binding of serum 6 to linear peptides of protein M of SARS-CoV Urbani / Binding of serum 37 to linear peptides of protein M of SARS-CoV Urbani / Binding of serum 6 to looped/cyclic peptides of protein M of SARS-CoV Urbani / Binding of serum 37 to looped/cyclic peptides of protein M of SARS-CoV Urbani / Binding of serum 6 to linear peptides of protein X3 of SARS-CoV Urbani / Binding of serum 37 to linear peptides of protein X3 of SARS-CoV Urbani / Binding of serum 37 to looped/cyclic peptides of protein X3 of SARS-CoV Urbani / Binding of serum 6 to linear peptides of protein X4 of SARS-CoV Urbani / Binding of serum 37 to linear peptides of protein X4 of SARS-CoV Urbani / Binding of serum 37 to looped/cyclic peptides of protein X4 of SARS-CoV Urbani / Binding of serum 6 to linear peptides of protein X5 of SARS-CoV Urbani / Binding of serum 37 to linear peptides of protein X5 of SARS-CoV Urbani / Binding of serum 37 to looped/cyclic peptides of protein X5 of SARS-CoV Urbani / Binding of serum 6 to linear peptides of protein N of SARS-CoV Urbani / Binding of serum 37 to linear peptides of protein N of SARS-CoV Urbani / Binding of serum 6 to linear peptide (PEPSCAN-ELISA) / Binding of serum 1a to looped/cyclic peptides of protein N of SARS-CoV Urbani / Binding of serum 1b to looped/cyclic peptides of protein N of SARS-CoV Urbani / Binding of serum 2 to looped/cyclic peptides of protein N of SARS-CoV Urbani / Binding of serum 6 to looped/cyclic peptides of protein N of SARS-CoV Urbani / Binding of serum 37 to looped/cyclic peptides of protein N of SARS-CoV Urbani / Binding of serum 62 to looped/cyclic peptides of protein N of SARS-CoV Urbani / Binding of serum London to looped/cyclic peptides of protein N of SARS-CoV Urbani / Binding of serum SARS-green to looped/cyclic peptides of protein N of SARS-CoV Urbani: unit not given here
[2] = tested on: control sera (pooled serum of ten healthy LUMC hospital workers; commercial negative donor pooled serum from the Dutch bloodbank); format: binding, human; parameters: Binding of Control serum LUMC to linear peptides / Binding of Control serum Blood-bank to linear peptides / Binding of Control serum LUMC to looped peptides / Binding of Control Serum Blood-Bank to Looped peptides / Binding of Control serum LUMC to linear peptides of the protein M of SARS-CoV Urbani / Binding of Control serum Blood-bank to linear peptides of the protein M of SARS-CoV Urbani / Binding of Control serum LUMC to looped peptides of the protein M of SARS-CoV Urbani / Binding of Control Serum Blood-Bank to Looped peptides of the protein M of SARS-CoV Urbani: unit not given here
[3] = tested on: rabbit serum obtained by immunizing a rabbit with the SARS-CoV strain Frankfurt 1; format: binding; parameters: Binding of a rabbit serum to linear peptides / Binding of a rabbit serum to looped peptides / Rabbit serum linear peptides / Rabbit serum looped peptides / Binding of a rabbit serum to linear peptides of protein N of SARS-CoV Urbani (Rabbit serum linear peptides) / Binding of a rabbit serum to looped/cyclic peptides of protein N of SARS-CoV Urbani (Rabbit serum looped peptides): unit not given here
[4] = tested on: recombinant human anti-SARS-CoV antibody 03-018; format: binding; parameters: Binding of antibody 03-018 to linear peptides of the N protein of SARS-CoV Urbani / Binding of antibody 03-018 to looped/cyclic peptides of the N protein of SARS-CoV Urbani: unit not given here

Sequence | Binding of serum 1a to linear peptides of protein N of SARS-CoV Urbani [1] | Binding of serum 1a to looped/cyclic peptides of protein N of SARS-CoV Urbani [1] | Binding of serum 1b to linear peptides of protein N of SARS-CoV Urbani [1] | Binding of serum 1b to looped/cyclic peptides of protein N of SARS-CoV Urbani [1] | Binding of serum 2 to linear peptides of protein N of SARS-CoV Urbani [1] | Binding of serum 2 to looped/cyclic peptides of protein N of SARS-CoV Urbani [1] | Binding of serum 6 to linear peptides of protein N of SARS-CoV Urbani [1] | Binding of serum 6 to looped/cyclic peptides of protein N of SARS-CoV Urbani [1] | Binding of serum 37 to linear peptides of protein N of SARS-CoV Urbani [1] | Binding of serum 37 to looped/cyclic peptides of protein N of SARS-CoV Urbani [1] | Binding of serum 62 to linear peptides of protein N of SARS-CoV Urbani [1] | Binding of serum 62 to looped/cyclic peptides of protein N of SARS-CoV Urbani [1] | Binding of serum London to linear peptides of protein N of SARS-CoV Urbani [1] | Binding of serum London to looped/cyclic peptides of protein N of SARS-CoV Urbani [1] | Binding of serum SARS-green to linear peptides of protein N of SARS-CoV Urbani [1] | Binding of serum SARS-green to looped/cyclic peptides of protein N of SARS-CoV Urbani [1] | Binding of serum SARS-yellow to linear peptides of protein N of SARS-CoV Urbani [1] | Binding of serum SARS-yellow to looped/cyclic peptides of protein N of SARS-CoV Urbani [1] | Binding of antibody 03-018 to linear peptides of the N protein of SARS-CoV Urbani [4] | Binding of antibody 03-018 to looped/cyclic peptides of the N protein of SARS-CoV Urbani [4] | also measured
RQLQNSMSGASADST | 0.2 | 0.2 | 0.2 | 0.1 | 0.2 | 0.3 | 0.2 | 0.1 | 0.7 | 0.4 | 0.6 | 0.2 | 0.6 | 0.2 | 0.3 | 0.1 | 0.5 | 0.2 | 0.1 | 0.2 | Control Serum Blood-Bank Looped peptides [2]: 0.4; Control serum Blood-bank linear peptides [2]: 0.7; Control serum LUMC linear peptides [2]: 0.6; Control serum LUMC looped peptides [2]: 0.2; Binding of a rabbit serum to linear peptides of protein N of SARS-CoV Urbani (Rabbit serum linear peptides) [3]: 0.5; Binding of a rabbit serum to looped/cyclic peptides of protein N of SARS-CoV Urbani (Rabbit serum looped peptides) [3]: 0.3
KELSPRWYFYYLGTG | 0.2 | 0.4 | 0.1 | 0.2 | 0.1 | 0.4 | 0.1 | 0.3 | 0.4 | 0.7 | 0.4 | 0.5 | 0.4 | 0.4 | 0.1 | 0.4 | 0.5 | 0.3 | 0.1 | 0.3 | Binding of Control Serum Blood-Bank to Looped peptides [2]: 0.7; Binding of Control serum Blood-bank to linear peptides [2]: 0.4; Binding of Control serum LUMC to linear peptides [2]: 0.4; Binding of Control serum LUMC to looped peptides [2]: 0.6; Binding of a rabbit serum to linear peptides of protein N of SARS-CoV Urbani (Rabbit serum linear peptides) [3]: 0.0; Binding of a rabbit serum to looped/cyclic peptides of protein N of SARS-CoV Urbani (Rabbit serum looped peptides) [3]: 0.4
LQNSMSGASADSTQA | 0.2 | 0.2 | 0.1 | 0.1 | 0.1 | 0.4 | 0.2 | 0.0 | 0.6 | 0.5 | 0.4 | 0.1 | 0.6 | 0.1 | 0.4 | 0.0 | 0.6 | 0.0 | 0.2 | 0.2 | Control Serum Blood-Bank Looped peptides [2]: 0.0; Control serum Blood-bank linear peptides [2]: 0.7; Control serum LUMC linear peptides [2]: 0.5; Control serum LUMC looped peptides [2]: 0.2; Binding of a rabbit serum to linear peptides of protein N of SARS-CoV Urbani (Rabbit serum linear peptides) [3]: 0.9; Binding of a rabbit serum to looped/cyclic peptides of protein N of SARS-CoV Urbani (Rabbit serum looped peptides) [3]: 0.4
NVTQAFGRRGPEQTQ |  | 0.3 |  | 0.2 |  | 0.3 |  | 0.2 |  | 0.5 |  | 0.4 |  | 0.4 |  | 0.3 |  | 0.3 | 0.1 | 0.2 | Binding of serum 1a to linear peptide (PEPSCAN-ELISA) [1]: 0.2; Binding of serum 1b to linear peptide (PEPSCAN-ELISA) [1]: 0.1; Binding of serum 2 to linear peptide (PEPSCAN-ELISA) [1]: 0.2; Binding of serum 6 to linear peptide (PEPSCAN-ELISA) [1]: 0.2; Binding of serum 37 to linear peptide (PEPSCAN-ELISA) [1]: 0.6; Binding of serum 62 to linear peptide (PEPSCAN-ELISA) [1]: 0.7; Binding of serum London to linear peptide (PEPSCAN-ELISA) [1]: 0.5; Binding of serum SARS-green to linear peptide (PEPSCAN-ELISA) [1]: 0.5; Binding of serum SARS-yellow to linear peptide (PEPSCAN-ELISA) [1]: 0.6; Binding of Control Serum Blood-Bank to Looped peptides [2]: 0.5; Binding of Control serum Blood-bank to linear peptides [2]: 0.7; Binding of Control serum LUMC to linear peptides [2]: 0.7; Binding of Control serum LUMC to looped peptides [2]: 0.5; Recognition of the peptide by the rabbit serum [3]: recognized
